From patent US20060223775A1 (priority 1992, published 2006)

Columns and labels:
Type in all cases: cell-based
[1] = tested on: transformed (NBK) human fibroblast; assay: Cell killing mediated by MVM-TK virions and gancyclovir (WST-1 colorimetric assay); settings: WST-1, daily
Experimental: (§1) The efficiency and selectivity of cells killing mediated by the MVM/P387-TK virions and gancyclovir were assessed by infecting normal (NHF) and transformed (NBK) human fibroblast. The results of said experiments are described in the enclosed FIGS. 8 and 9.
(§2) Cell growth was daily monitored with the WST-1 colorimetric assay (Boehringer).
(§3) In FIG. 9, NHF and NBK cells were infected at different MoI and the cell survival was assessed after 4 days with the WST-1 assay in presence or absence of GCV.

[2] = tested on: normal (NHF) human fibroblast; assay: as above; settings: mock or MVM-TK infected, WST-1, daily
Experimental: as §1, §2, §3

[3] = tested on: luciferase gene under the control of a promoter activated by tTA; assay: Luciferase expression in clone NBK.MZ.tTA-2 electroporated with pUHC13-1
Experimental: Selected stably transfected NBK324 clones (G418 selection) were assayed for luciferase expression upon transient transfection (in absence or presence of tetracycline) with the plasmid pUHC13-1 (Gossen and Bujard). The plasmid pUHC13-1 is an expression vector containing the luciferase gene under the control of a promoter activated by tTA.
The best clone selected, NBK.MZ.tTA-2, upon electroporation at 230 volts and 1050 μF with 4 μg of pUHC13-1 is charaterized by the following results (expressed in relative luciferase unit rlu/μg protein): […]

In the case of `Nc1nc(O)c2ncn(COC(CO)CO)c2n1` [GCV, gancyclovir], the “GCV concentration at which growth was severely suppressed” value ([1]; MVM-TK infected NBK) is reported as at least 3 µg/mL, the “cell growth at different GCV concentrations” value ([1]; mock infected NBK) is reported as “not affected” and the “cell growth at different GCV concentrations” value [2] is reported as “not affected”.

For `CN(C)[C@@H]1C(O)=C(C(N)=O)C(=O)[C@@]2(O)C(O)=C3C(=O)c4c(O)cccc4[C@@](C)(O)[C@H]3C[C@@H]12` [tetracycline], the “luciferase expression (relative luciferase unit)” value ([3]; tetracycline 10 ng ml, 4 μg pUHC13-1, 230 volts, 1050 μF) was 19212 rlu/μg protein, the “luciferase expression (relative luciferase unit)” value ([3]; tetracycline 100 ng/ml, 4 μg pUHC13-1) was 2268 rlu/μg protein and the “luciferase expression (relative luciferase unit)” value ([3]; tetracycline 1 μg/ml, 4 μg pUHC13-1) was 1568 rlu/μg protein.
